Experimental findings from the supplement of paper PMC4862054 are described below.

Several values for one entry are separate records, joined by “and”; a condition that tells them apart may be missing. Equal entries are not always repeated.

In assay [1] the test system is BT-474. The conditions noted are these: 72 h. In outline: (§1)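 In this assay, breast cancer cell lines spent 72 h with compound at 5 concentrations in 10-fold steps over a compound-specific 10,000-fold range. The first readout was cell death by CellTox Green fluorescence, and the second was viability by CellTiter-Glo luminescence, each normalised per plate to 0.1 % DMSO and a positive kill control. EC50 came from the dose-response curves, censored at the top concentration.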

The subject of assay [2] is CAL-120. The following applies: 72 h. In outline: as §1
The subject of assay [3] is CAL-51. The conditions noted are these: 72 h. In outline: as §1
In assay [4] the test system is CAL-85-1. The following applies: 72 h. A digest of the protocol:
as §1

Assay [5] deals with HCC1937. The conditions noted are these: 72 h. A digest of the protocol: as §1
Assay [6] has as its system Hs578T. The conditions noted are these: 72 h. A digest of the protocol:
as §1

For the next assay, the system named is MCF-10A. The conditions noted are these: 72 h. A digest of the protocol:
as §1

The test system of assay [7] is MDA-MB-231. The conditions noted are these: 72 h. A digest of the protocol:
as §1

Assay [8] concerns MDA-MB-453. The following applies: 72 h. In outline: as §1
Assay [9] concerns MDA-MB-468. The conditions noted are these: 72 h. A digest of the protocol: as §1
A further assay has as its system BT-549. The following applies: 72 h. In outline: as §1
The test system of assay [10] is MDA-MB-436. The following applies: 72 h. In outline:
as §1

In the next assay the test system is SK-BR-3. The following applies: 72 h. In outline:
as §1

Assay [11] concerns BT-474. The assay can be described thus: normalised viability (% of control), CellTiter-Blue; higher = more viable cells (about 100 = DMSO control). The following applies: 1000 nM; incubation time: 72 h. In outline:
(§2)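 Plates were quality-checked by Z'-factor and normalised to vehicle (100) and a positive kill control (0). The underlying assay incubated breast cancer cell lines for 72 h on 384-well plates with compound, then added 2.5 µl CellTiter-Blue for 2 h at 37 °C and read at 560/590 nm. The value is normalised viability at a single listed concentration of the series.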
On the technique in general: Resazurin is reduced to fluorescent resorufin, in cell work by metabolically active cells.

Assay [12] has as its system CAL-120. The description is as above. The conditions noted are these: 1000 nM; incubation time: 72 h. In outline:
as §2

Assay [13] concerns CAL-51. The description is as above. The conditions noted are these: 10 nM; incubation time: 72 h. In outline:
as §2

The test system of assay [14] is CAL-85-1. The description is as above. The conditions noted are these: 10 nM; incubation time: 72 h. A digest of the protocol: as §2
The subject of assay [15] is HCC1599. The description is as above. The following applies: 1000 nM; incubation time: 72 h. A digest of the protocol:
as §2

For assay [16], the system named is HCC1937. Described as above. The conditions noted are these: 1000 nM; incubation time: 72 h. A digest of the protocol: as §2
For assay [17], the system named is Hs578T. The description is as above. The conditions noted are these: 1000 nM; incubation time: 72 h. In outline:
as §2

For assay [18], the system named is MDA-MB-436. The assay is described as above. The following applies: 1000 nM; incubation time: 72 h. A digest of the protocol: as §2
Assay [19] deals with MDA-MB-453. The assay is described as above. The conditions noted are these: 10 nM; incubation time: 72 h. In outline:
as §2

For assay [20], the system named is MDA-MB-468. Described as above. The following applies: 1000 nM; incubation time: 72 h. In outline:
as §2

The test system of assay [21] is BT-474. The assay is described as follows: normalised viability (% of control), CellTiter-Blue; higher = more viable cells (about 100 = DMSO control). The following applies: 10 nM; incubation time: 72 h. The procedure: (§3)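 DSRT, CellTiter-Blue viability, 72 h incubation. Signal is normalised to DMSO and benzethonium chloride controls. Value is the normalised response at dose 3.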

The subject of assay [22] is CAL-51. The assay is described as above. The conditions noted are these: 1 nM; incubation time: 72 h. The protocol: as §3
Assay [23] deals with DU-4475. The assay is described as above. The following applies: 1 nM; incubation time: 72 h. The protocol: as §3
Assay [24] relates to HCC1599. The assay is described as above. The conditions noted are these: 10 nM; incubation time: 72 h. The protocol:
as §3

For assay [25], the system named is HCC1937. The description is as above. The following applies: 10 nM; incubation time: 72 h. The procedure: as §3
Assay [26] has as its system HDQ-P1. The description is as above. The conditions noted are these: 1 nM; incubation time: 72 h. The procedure:
as §3

The subject of assay [27] is MDA-MB-231. The assay is described as above. The following applies: 10 nM; incubation time: 72 h. The protocol:
as §3

Assay [28] relates to MDA-MB-468. The assay is described as above. The following applies: 10 nM; incubation time: 72 h. The procedure: as §3
Another assay relates to CAL-148. The assay is described as above. The conditions noted are these: 30 nM; incubation time: 72 h. The protocol: (§4)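 DSRT, CellTiter-Blue viability, 72 h incubation. Signal is normalised to DMSO and benzethonium chloride controls. Value is the normalised response at dose 6.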
Assay [29] has as its system CAL-51. The assay is described as above. The conditions noted are these: 30 nM; incubation time: 72 h. The protocol:
as §4

In assay [30] the test system is CAL-85-1. Described as above. The conditions noted are these: 30 nM; incubation time: 72 h. The procedure:
as §4

Assay [31] concerns DU-4475. The description is as above. The conditions noted are these: 30 nM; incubation time: 72 h. The procedure:
as §4

The test system of assay [32] is HDQ-P1. The assay is described as above. The following applies: 30 nM; incubation time: 72 h. The procedure: as §4
The test system of assay [33] is MDA-MB-453. The description is as above. The conditions noted are these: 30 nM; incubation time: 72 h. The procedure:
as §4

Consider `CC(C)c1c(C(=O)Nc2ccccc2)c(-c2ccccc2)c(-c2ccc(F)cc2)n1CC[C@@H](O)C[C@@H](O)CC(=O)O` [Atorvastatin], for which the “EC50, CellTiter-Glo” value worked out at 1750 nM in the assay on BT-474 [1]; 1840 nM in the assay with CAL-120 [2]; 2210 nM with CAL-51 [3]; 1900 nM in the assay with CAL-85-1 [4]; 2370 nM in the assay on HCC1937 [5]; 7.69 µM in the assay on Hs578T [6]. In addition, the “EC50, CellTiter-Glo” value in the assay with MCF-10A was 2280 nM; with MDA-MB-231 [7] it was 1270 nM; with MDA-MB-453 [8], more than 10000 nM; with MDA-MB-468 [9], 4390 nM.

With `CO[C@H]1C[C@@H]2CC[C@@H](C)[C@@](O)(O2)C(=O)C(=O)N2CCCC[C@H]2C(=O)O[C@H]([C@H](C)C[C@@H]2CC[C@@H](OCCO)[C@H](OC)C2)CC(=O)[C@H](C)/C=C(\C)[C@@H](O)[C@@H](OC)C(=O)[C@H](C)C[C@H](C)/C=C/C=C/C=C/1C` [Everolimus], the “EC50, CellTiter-Glo” value was determined as 4.76 nM in the assay on BT-474 [1]; 0.13 nM in the assay on BT-549; 0.67 nM in the assay with CAL-120 [2]; 0.67 nM with CAL-51 [3]; 0.22 nM in the assay on CAL-85-1 [4]; 0.24 nM in the assay on HCC1937 [5]. Further, the “EC50, CellTiter-Glo” value in the assay on Hs578T [6] stood at 0.00018 µM; with MDA-MB-436 [10] it was 0.76 nM; in the assay with MDA-MB-453 [8], 1.65 nM; in the assay on MDA-MB-468 [9], 0.13 nM; with SK-BR-3, 0.49 nM. Besides, the normalised viability in the assay on BT-474 [11] is 65% and 59.1%; in the assay on CAL-120 [12], 53.2% and 38.1%; in the assay with CAL-51 [13] it was 39.8% and 39.5%; in the assay with CAL-85-1 [14], 68.8% and 61.3%; with HCC1599 [15], 86.7% and 68.9%; with HCC1937 [16], 45.8% and 46.6%. The normalised viability in the assay with Hs578T [17] was 53.2% and 41.5%; with MDA-MB-436 [18] it was 93.8% and 71.5%; with MDA-MB-453 [19], 32.7% and 28.1%; with MDA-MB-468 [20], 56.8% and 64.2%; with BT-474 [21], 65.6% and 61.3%; in the assay with CAL-51 [22], 70.1% and 73.5%. In addition, the normalised viability was 96.6% and 83.4% with DU-4475 [23]; 81.1% and 87.6% with HCC1599 [24]; 60.5% and 63.5% with HCC1937 [25]; 80.8% and 75% in the assay on HDQ-P1 [26]; 92.7% and 69.3% with MDA-MB-231 [27]; 84.1% and 59.7% in the assay on MDA-MB-468 [28]. In addition, the normalised viability in the assay on CAL-148 is 42.9% and 41.6%; in the assay with CAL-51 [29] it was 39.1% and 41.5%; in the assay with CAL-85-1 [30], 61.6% and 56.1%; with DU-4475 [31] it was 50.6% and 60.2%; with HDQ-P1 [32], 38.7% and 49%; with MDA-MB-453 [33], 30.5% and 29.2%.
